From patent US20160303122A1, “TREATMENT OF HEPATITIS B VIRAL” (Southern Research Institute, priority 2015, published 2016)
Where two headings read alike, the source gives them in different places.

Experiments:
HepG2 2.2.15 = test: Cell Titer 96 (Toxicity) in the secondary assay; assay type: cell-based; details: HepG2 2.2.15 cells, unit from conc. ranges in the 1st table, read-out: CC50 - compound concentration that reduces cell viability by 50%
Hepatitis B virus [1] = test: Secondary anti-Hepatitis B virus assay, quantitative polymerase chain reaction (intracellular DNA); assay type: cell-based, Hepatitis B virus (Hepatitis B-adr); details: for EC50 / EC90: Hepatitis B-adr, intracellular DNA by qPCR, vehicle DMSO, unit from conc. ranges in the 1st table; for EC50: read-out: EC50 - compound concentration that reduces viral replication by 50%; for EC90: read-out: EC90 - compound concentration that reduces viral replication by 90%; for Sl90 - CC50/EC90 / Sl50 - CC50/EC50: selectivity index
Experimental: (§1) Hepatitis B antiviral assays (Korba & Gerin, 1992, Antivir. Res. 19:55) are conducted using confluent cultures of 2.2.15 cells (genotype ayw; parental cell HepG2) maintained on 96-well flat-bottomed tissue culture plates (confluence in this culture system is required for active, high levels of Hepatitis B replication equivalent to that observed in chronically-infected individuals (Sells, et al., 1988, J. Virol. 62:2836; Korba and Gerin, 1992, Antivir. Res. 19:55). Cultures are treated for 7 days. Typically, 4 doses (10-fold or 3-fold steps), in triplicate are used. Hepatitis B DNA levels in the culture medium (representing Hepatitis B virion production) are assessed by quantitative blot hybridization 24 hrs. after the last treatment. Cytotoxicity is assessed by uptake of neutral red dye 24 hr. following the last treatment. Lamivudine (LMV) is used as the standard assay control, but other control compounds are also available.
EC50, EC90 and CC50 values are calculated by linear regression analysis (MS EXCEL®, QuattroPro®) using data combined from all treated cultures (Korba & Gerin, 1992, Antivir. Res. 19:55; Okuse, et al., 2005, Antivir. Res. 65:23). Standard deviations for EC50 and EC90 values are calculated from the standard errors generated by the regression analyses. EC50 and EC90 are drug concentrations at which a 2-fold, or a 10-fold depression of Hepatitis B DNA (relative to the average levels in untreated cultures), respectively, is observed. CC50 is the drug concentration at which a 2-fold lower level of neutral red dye uptake (relative to the average levels in untreated cultures) is observed. The Selectivity index (S.I.) is calculated as CC50/EC90 since at least a 3-fold depression of Hepatitis B DNA levels is typically required to achieve statistical significance in this assay system (Korba & Gerin, 1992, Antivir. Res. 19:55).
Confluent cultures of HepG2 2.2.15 cells maintained on 48-well flat-bottomed tissue culture plates are treated as described for the primary assay. Hepatitis B virion DNA levels in the culture medium and cytotoxicity are assessed as described for the primary assay. […] Res. 19:55). EC50, EC90, and S.I. values are calculated for both virion DNA and intracellular Hepatitis B DNA replication intermediates.

Hepatitis B virus [2] = test: Primary anti-Hepatitis B virus assay (primary screen); assay type: cell-based; details: data confirmed in the secondary assay
Experimental: as §1
EC50, EC90 and CC50 values are calculated by linear regression analysis (MS EXCEL®, QuattroPro®) using data combined from all treated cultures (Korba & Gerin, 1992, Antivir. Res. 19:55; Okuse, et al., 2005, Antivir. Res. 65:23). Standard deviations for EC50 and EC90 values are calculated from the standard errors generated by the regression analyses. […]

[3] = Cell Titer 96 (Toxicity) in the secondary assay; assay type: cell-based; details: human, HepG2 2.2.15 cells (confluent cultures), unit from conc. ranges in the 1st table, read-out: CC50 - compound concentration that reduces cell viability by 50%
[4] = HepG2 2.2.15 cells, listed as 3TC (1)
[5] = HepG2 2.2.15 cells, listed as 3TC (2)
[6] = HepG2 2.2.15 cells, listed as 3TC (3)
[7] = Hepatitis B virus, HepG2 2.2.15, HepG2 2.2.15 cells

Row | SMILES | CC50 (HepG2 2.2.15; listed as 3TC (1)) [nM] | CC50 (HepG2 2.2.15; listed as 3TC (2)) [nM] | CC50 (HepG2 2.2.15; listed as 3TC (3)) [nM] | EC50 (Hepatitis B virus [1]; [4]) [nM] | EC90 (Hepatitis B virus [1]; [4]) [nM] | EC90 (Hepatitis B virus [1]; [5]) [nM] | EC50 (Hepatitis B virus [1]; [6]) [nM] | EC90 (Hepatitis B virus [1]; [6]) [nM] | Sl90 - CC50/EC90 (Hepatitis B virus [1]; HepG2 2.2.15 cells) | Sl50 - CC50/EC50 (Hepatitis B virus [1]; [4]) | Sl50 - CC50/EC50 (Hepatitis B virus [1]; [5]) | Sl50 - CC50/EC50 (Hepatitis B virus [1]; [6]) | EC50 (Hepatitis B virus [1]; [7]) [nM] | activity in the primary screen (Hepatitis B virus [2]) | CC50 at 7 days [3] [nM] | Sl50 - CC50/EC50 (Hepatitis B virus [1]; HepG2 2.2.15 cells) | EC90 (Hepatitis B virus [1]; [7]) [nM]
1 | Nc1ccn([C@@H]2CS[C@H](CO)O2)c(=O)n1 [Compound 3TC, 2′,3′-dideoxy-3′-thiacytidine] | > 500 | > 1000 | > 2000 | 40 | > 500 | > 1000 | 50 | > 2000 | 1 | >12 | >15 | >43 | 60 | – | – | – | –
2 | CCC[C@H](Nc1nc(-c2ccc(NC(=O)NCC)c(OC)c2)ncc1C)c1cccnc1 (stereo in doubt) [Compound 1A, 1-ethyl-3-(2-methoxy-4-(5-methyl-4-((1-(pyridine-3-yl)butyl)amino)pyrimidin-2-yl)phenyl)urea] | – | – | – | – | – | – | – | – | 1 | – | – | – | < 320 | active | 25400 | >80 | 710
